The CheMixHub viscosity set
“And” between values parts separate entries of the source, which are not always exact repeats. Equal values may be shown once.

Assay: xn = mol fraction of the nth substance listed

N[C@@H](CO)C(=O)O + O
Details | viscosity
298 K, 101 kPa, x1 = 0.0004 | 0.8836 mPa·s
298 K, 101 kPa, x1 = 0.0007 | 0.8853 mPa·s
298 K, 101 kPa, x1 = 0.001 | 0.889 mPa·s and 0.8901 mPa·s
298.15 K, 101 kPa, x1 = 8.92e-05 | 0.9214 mPa·s
298.15 K, 101 kPa, x1 = 0.000181 | 0.9346 mPa·s
298.15 K, 101 kPa, x1 = 0.00045 | 0.9108 mPa·s
298.15 K, 101 kPa, x1 = 0.000898 | 0.9225 mPa·s
298.15 K, 101 kPa, x1 = 0.00135 | 0.9328 mPa·s
298.15 K, 101 kPa, x1 = 0.00178 | 0.9489 mPa·s
298.15 K, 101 kPa, x1 = 0.001798 | 0.942 mPa·s
298.15 K, 101 kPa, x1 = 0.002245 | 0.9508 mPa·s
298.15 K, 101 kPa, x1 = 0.002695 | 0.9596 mPa·s
298.15 K, 101 kPa, x1 = 0.003143 | 0.9678 mPa·s
298.15 K, 101 kPa, x1 = 0.00359 | 0.9758 mPa·s
298.15 K, 101 kPa, x1 = 0.003599 | 0.9614 mPa·s
298.15 K, 101 kPa, x1 = 0.005265 | 0.9714 mPa·s
298.15 K, 101 kPa, x1 = 0.007246 | 0.9945 mPa·s
298.15 K, 101 kPa, x1 = 0.008825 | 1.011 mPa·s
298.15 K, 101 kPa, x1 = 0.01096 | 1.024 mPa·s
298.15 K, 101 kPa, x1 = 0.01198 | 1.04 mPa·s
298.15 K, 101 kPa, x1 = 0.01387 | 1.059 mPa·s
298.15 K, 101.3 kPa, x1 = 0.0008915 | 0.901 mPa·s
298.15 K, 101.3 kPa, x1 = 0.001352 | 0.905 mPa·s
298.15 K, 101.3 kPa, x1 = 0.001784 | 0.909 mPa·s
298.15 K, 101.3 kPa, x1 = 0.002244 | 0.913 mPa·s
298.15 K, 101.3 kPa, x1 = 0.002683 | 0.917 mPa·s
303.15 K, 101 kPa, x1 = 0.00045 | 0.8151 mPa·s
303.15 K, 101 kPa, x1 = 0.000898 | 0.8252 mPa·s
303.15 K, 101 kPa, x1 = 0.00135 | 0.834 mPa·s
303.15 K, 101 kPa, x1 = 0.001798 | 0.8418 mPa·s
303.15 K, 101 kPa, x1 = 0.002245 | 0.8494 mPa·s
303.15 K, 101 kPa, x1 = 0.002695 | 0.8566 mPa·s
303.15 K, 101 kPa, x1 = 0.003143 | 0.8637 mPa·s
303.15 K, 101 kPa, x1 = 0.00359 | 0.8705 mPa·s
303.15 K, 101.3 kPa, x1 = 0.0008915 | 0.807 mPa·s
303.15 K, 101.3 kPa, x1 = 0.001352 | 0.811 mPa·s
303.15 K, 101.3 kPa, x1 = 0.001784 | 0.815 mPa·s
305.15 K, 101 kPa, x1 = 0.0003602 | 0.7851 mPa·s
305.15 K, 101 kPa, x1 = 0.0007201 | 0.7891 mPa·s
305.15 K, 101 kPa, x1 = 0.00108 | 0.7935 mPa·s
305.15 K, 101 kPa, x1 = 0.001439 | 0.7984 mPa·s
305.15 K, 101 kPa, x1 = 0.001798 | 0.8025 mPa·s
305.15 K, 101 kPa, x1 = 0.002157 | 0.8071 mPa·s
308.15 K, 101 kPa, x1 = 8.92e-05 | 0.7615 mPa·s
308.15 K, 101 kPa, x1 = 0.000181 | 0.7756 mPa·s
308.15 K, 101 kPa, x1 = 0.00045 | 0.7347 mPa·s
308.15 K, 101 kPa, x1 = 0.000898 | 0.7434 mPa·s
308.15 K, 101 kPa, x1 = 0.00135 | 0.751 mPa·s
308.15 K, 101 kPa, x1 = 0.00178 | 0.7901 mPa·s
308.15 K, 101 kPa, x1 = 0.001798 | 0.7578 mPa·s
308.15 K, 101 kPa, x1 = 0.002245 | 0.7641 mPa·s
308.15 K, 101 kPa, x1 = 0.002695 | 0.7704 mPa·s
308.15 K, 101 kPa, x1 = 0.003143 | 0.7764 mPa·s
308.15 K, 101 kPa, x1 = 0.00359 | 0.7822 mPa·s
308.15 K, 101 kPa, x1 = 0.003599 | 0.8056 mPa·s
308.15 K, 101 kPa, x1 = 0.005265 | 0.8198 mPa·s
308.15 K, 101 kPa, x1 = 0.007246 | 0.8356 mPa·s
308.15 K, 101 kPa, x1 = 0.008825 | 0.8542 mPa·s
308.15 K, 101 kPa, x1 = 0.01096 | 0.8741 mPa·s
308.15 K, 101 kPa, x1 = 0.01198 | 0.8898 mPa·s
308.15 K, 101 kPa, x1 = 0.01387 | 0.9046 mPa·s
310.15 K, 101 kPa, x1 = 0.0003602 | 0.7043 mPa·s
310.15 K, 101 kPa, x1 = 0.0007201 | 0.708 mPa·s
310.15 K, 101 kPa, x1 = 0.00108 | 0.7119 mPa·s
310.15 K, 101 kPa, x1 = 0.001439 | 0.7158 mPa·s
310.15 K, 101 kPa, x1 = 0.001798 | 0.7189 mPa·s
310.15 K, 101 kPa, x1 = 0.002157 | 0.7232 mPa·s
313.15 K, 101 kPa, x1 = 0.00045 | 0.6665 mPa·s
313.15 K, 101 kPa, x1 = 0.000898 | 0.6741 mPa·s
313.15 K, 101 kPa, x1 = 0.00135 | 0.6807 mPa·s
313.15 K, 101 kPa, x1 = 0.001798 | 0.6867 mPa·s
313.15 K, 101 kPa, x1 = 0.002245 | 0.6922 mPa·s
313.15 K, 101 kPa, x1 = 0.002695 | 0.6976 mPa·s
313.15 K, 101 kPa, x1 = 0.003143 | 0.7029 mPa·s
313.15 K, 101 kPa, x1 = 0.00359 | 0.7078 mPa·s
315.15 K, 101 kPa, x1 = 0.0003602 | 0.6498 mPa·s
315.15 K, 101 kPa, x1 = 0.0007201 | 0.6537 mPa·s
315.15 K, 101 kPa, x1 = 0.00108 | 0.6566 mPa·s
315.15 K, 101 kPa, x1 = 0.001439 | 0.66 mPa·s
315.15 K, 101 kPa, x1 = 0.001798 | 0.6629 mPa·s
315.15 K, 101 kPa, x1 = 0.002157 | 0.6666 mPa·s
318.15 K, 101 kPa, x1 = 8.92e-05 | 0.6512 mPa·s
318.15 K, 101 kPa, x1 = 0.000181 | 0.6602 mPa·s
318.15 K, 101 kPa, x1 = 0.00045 | 0.6097 mPa·s
318.15 K, 101 kPa, x1 = 0.000898 | 0.6164 mPa·s
318.15 K, 101 kPa, x1 = 0.00135 | 0.6222 mPa·s
318.15 K, 101 kPa, x1 = 0.00178 | 0.6723 mPa·s
318.15 K, 101 kPa, x1 = 0.001798 | 0.6275 mPa·s
318.15 K, 101 kPa, x1 = 0.002245 | 0.6324 mPa·s
318.15 K, 101 kPa, x1 = 0.002695 | 0.6371 mPa·s
318.15 K, 101 kPa, x1 = 0.003143 | 0.6417 mPa·s
318.15 K, 101 kPa, x1 = 0.00359 | 0.6461 mPa·s
318.15 K, 101 kPa, x1 = 0.003599 | 0.6845 mPa·s
318.15 K, 101 kPa, x1 = 0.005265 | 0.6953 mPa·s
318.15 K, 101 kPa, x1 = 0.007246 | 0.7012 mPa·s
318.15 K, 101 kPa, x1 = 0.008825 | 0.7125 mPa·s
318.15 K, 101 kPa, x1 = 0.01096 | 0.7242 mPa·s
318.15 K, 101 kPa, x1 = 0.01198 | 0.7345 mPa·s
318.15 K, 101 kPa, x1 = 0.01387 | 0.7466 mPa·s
